Experimental findings from EP4711365A1 (Shanghai Hansoh Biomedical Co., Ltd., priority 2023, dated 2024) are described below.

In data set [1] the target is T1, human IL-17RA and IL-17A proteins (Homo sapiens, UniProt Q16552).
T1 sequence (Q16552 24-155): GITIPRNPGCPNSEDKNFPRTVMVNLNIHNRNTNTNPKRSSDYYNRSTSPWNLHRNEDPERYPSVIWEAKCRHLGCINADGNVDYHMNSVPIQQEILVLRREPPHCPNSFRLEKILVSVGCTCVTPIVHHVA
Put plainly: Competitive ELISA: blocking of binding between human IL-17RA and IL-17A. The note with it: coated IL-17A, IL-17RA 5 nM. Here is the method:
Test example 1 Assay for competitive binding effect between compounds of the present invention and human IL-17 receptor for ligand
1. Experimental objective: to quantitatively determine the blocking effect of the compound on the binding between human IL-17RA and IL-17A proteins using competitive ELISA under in vitro conditions. 2. Experimental instruments and reagents: 2.1 Instruments:
2.2 Reagents: 3. Experimental method: IL-17A at 0.0625 µg/mL was coated in a 96-well plate at 4°C overnight at 100 µL per well. The plate was washed with PBST (300 µL/well x 4), and then blocked at 24°C for 2 h by adding 300 µL of ELISA Blocker blocking buffer to each well. The plate was further washed under the same conditions. 80 µL of PBS solution containing 1% BSA and 10 µL of 10× test compound solution were added to each well and mixed uniformly, and then the mixture was incubated at room temperature for 1 hour. After that, 10 µL of IL-17RA solution was added to a final concentration of 5 nM and mixed uniformly, and then the mixture was incubated at 24°C for 1 h. The corresponding concentration and volume of DMSO solution without compounds was added to positive control wells, and 1% BSA solution without IL-17RA was added to negative control wells.
After the plate was washed four times, 100 µL of the anti-Fc tag HRP-conjugated antibody was added, and the mixture was incubated at 37°C for 1 h. After the plate was washed four times, 100 µL of TMB substrate was added to each well, and the mixture was incubated at 37°C in the dark. After colour development was completed, the reaction was terminated by adding 100 µL of stop solution to each well, and the absorbance was measured at wavelengths of 450 nm and 570 nm using a microplate reader.
• 1) Inhibition rate (%): The original data (OD450-OD570) was calculated according to the following formula to obtain the inhibition rate. Inhibition rate% = [(average value of positive control wells - value of sample wells)/(average value of positive control wells - average value of negative control wells)] × 100, where the positive control wells are wells without compounds, and the negative control wells are wells without IL-17RA protein solution. • 2) Curve fitting: Log(inhibitor) vs. response -- Variable slope (four parameters) in GraphPad Prism 8 was used for fitting equation analysis of the compound concentration and the corresponding inhibition rate, and the curve was fitted to obtain the IC50 value of the compound. The fitting calculation equation was Y = Bottom + (Top - Bottom) / (1 + 10^((LogIC50 - X) * HillSlope)).
(In an ELISA, binding on a coated surface is turned into a signal by an enzyme label.)

For data set [2], the system named is Groα secretion by HT-29 cells. Put plainly: Inhibition of Groα secretion by HT-29 cells stimulated with IL-17A (ELISA). In kind it is cell-based, Human. The note with it: Homo sapiens, IL-17A 30 ng/ml, 48 hours, Groα in supernatant. In short, it runs like this: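 HT-29 cells (10,000/well) were cultured overnight, then given compound pre-mixed 30 min with IL-17A (final 30 ng/ml) and incubated 48 hours at 37°C. Groα in supernatant was measured by ELISA at 450 nm; inhibition relative to IL-17A-stimulated control, IC50 from four-parameter fit.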

The nature of data set [3]: Pharmacokinetic assay in Wistar rats, oral. The note with it: rat, plasma, 30 mg/kg.
Method: Experimental objective: to study the pharmacokinetic behaviours of the compounds of the present invention in the body (plasma) of Wistar rats as test animals after oral administration at a dose of 30 mg/kg. • 2. Experimental scheme • 2.1 Test drugs: the examples of the present invention, prepared in house. • 2.2 Test animals: Wistar rats (female, 3 rats per group), from Beijing Vital River Laboratory Animal Technology Co., Ltd., with the animal production license no.
Solutol HS15 was melted in a water bath at 50-60°C, and then 50 mL of the melted Solutol HS15 was added to 450 mL of ultrapure water. The mixture was stirred and sonicated to obtain 500 mL of 10% Solutol HS15 solution. The compound was weighed, and according to the total administration volume, 30% PEG solution was first added. The mixture was shaken uniformly and sonicated until a clear solution was obtained. Subsequently, 70% (10% Solutol) in water was added, resulting in a colourless and clear solution with a concentration of 3.0 mg/mL.
2.4 Administration scheme: After overnight fasting, 3 female Wistar rats per group were administered orally (PO) at a dose of 30 mg/kg with an administration volume of 10 mL/kg.
• 1) To 50 uL of plasma sample was added 250 uL of acetonitrile for precipitation, and the mixture was mixed and then centrifuged at 4°C at 4000 rpm for 20 minutes. • 2) The treated supernatant solution was taken and subjected to LC/MS/MS to analyse the concentration of the test compounds. LC/MS/MS analysis instrument: AB Sciex API-4000 Qtrap-Shimadzu Controller-CBM20A.
• Chromatographic column: Waters Xbridge C18 3.5 um 2.1*50 mm • Mobile phase: solution A: 0.1% formic acid in water, and solution B: 0.1% formic acid in acetonitrile • Flow rate: 0.6 mL/min • Elution time: 0-3.5 minutes, with eluents as follows:

Each structure is given as a SMILES string.

For `C[C@@H]1CN(C[C@H](c2cnc(NC(=O)[C@@H](NC(=O)C3(F)CC3)[C@H]3CC[C@H](C)CC3)s2)N2CC(F)(F)CNC2=O)[C@@H](C)CO1` [Example 731], in data set [1], the half-inhibitory concentration (IC50) (commonly the midpoint of a concentration-inhibition curve) was determined as 6.6 nM. Moreover, in data set [2], the midpoint of inhibition, the IC50, lay at 6 nM. Also, in data set [3], the AUC(0-t) (usually the area under the concentration-time curve up to a stated or last time point) is 14300 ng·h/mL; the maximum concentration (Cmax) (usually the peak of the concentration-time curve) came to 1840 ng/mL; the time of peak concentration (Tmax) (as a rule, the time at which the peak concentration occurs) was found to be 2 h; the half-life (in general, the time in which the quantity being followed falls by half) was 2.3 h.

Regarding `C[C@@H]1CN(C[C@H](c2cnc(NC(=O)[C@@H](NC(=O)C3(F)CC3)[C@H]3CC[C@H](C)CC3)s2)N2CC(F)(F)CNC2=O)[C@H](C)CO1` [Example 736, N-((S)-2-((5-((R)-1-(5,5-difluoro-2-oxotetrahydropyrimidin-1(2H)-yl)-2-((2R,5R)-2,5-dimethylmorpholino)ethyl)thiazol-2-yl)amino)-1-((1r,4S)-4-methylcyclohexyl)-2-oxoethyl)-1-fluorocyclopropane-1-carboxamide], the IC50 in data set [1] turned out to be 3.6 nM. The same molecule registered an IC50 in data set [2] of 1 nM. Further, in data set [3], the AUC(0-t) stood at 10800 ng·h/mL, the Cmax is 1310 ng/mL, the Tmax is 2 h and the half-life was 2.4 h.

Turning to `CC1CCC(C(NC(=O)C2(F)CC2)C(=O)Nc2ncc(C(CN3C(C)COCC3C)N3CC(F)(F)CNC3=O)s2)CC1` (stereo not drawn) [Example 739], the half-inhibitory concentration (IC50) in data set [1] is 5 nM. This molecule returned an IC50 in data set [2] of 3 nM. Also, in data set [3], the exposure AUC(0-t) stood at 10300 ng·h/mL, the Cmax was 1940 ng/mL, the time to peak (Tmax) amounted to 2 h and the half-life was 2.5 h.

In the case of `C[C@H]1CC[C@H]([C@H](NC(=O)C2(F)CC2)C(=O)Nc2ncc([C@@H](CN3CCC(F)(F)CC3)N3CC(F)(F)CNC3=O)s2)CC1` [Example 763, N-((S)-2-((5-((R)-1-(5,5-difluoro-2-oxotetrahydropyrimidin-1(2H)-yl)-2-(4,4-difluoropiperidin-1-yl)ethyl)thiazol-2-yl)amino)-1-((1r,4S)-4-methylcyclohexyl)-2-oxoethyl)-1-fluorocyclopropane-1-carboxamide], the concentration for half-maximal inhibition (IC50) in data set [1] amounted to 6 nM. This molecule showed an IC50 in data set [2] of 4.5 nM. In addition, in data set [3], the area under the curve AUC(0-t) was 15900 ng·h/mL, the peak level (Cmax) was 1480 ng/mL, the time to peak (Tmax) turned out to be 4 h and the half-life is 3.4 h.

As for `C[C@H]1CC(F)(F)CCN1C[C@H](c1cnc(NC(=O)[C@@H](NC(=O)C2(F)CC2)[C@H]2CC[C@H](C)CC2)s1)N1CC(F)(F)CNC1=O` [Example 764], the IC50 in data set [1] is 7 nM. This molecule showed an IC50 in data set [2] of 7 nM. Further, in data set [3], the exposure AUC(0-t) was determined as 11700 ng·h/mL, the concentration peaked (Cmax) at 1090 ng/mL, the Tmax was found to be 4 h and the half-life was 4.1 h.

As to `C[C@H]1CC[C@H]([C@H](NC(=O)C2(F)CC2)C(=O)Nc2ncc([C@@H](CN3CCC(C(F)F)CC3)N3CC(F)(F)CNC3=O)s2)CC1` [Example 770], the 50% inhibitory concentration (IC50) in data set [1] came out at 7 nM. For the same molecule, the IC50 in data set [2] was 3.4 nM. In data set [3], the AUC(0-t) came out at 11600 ng·h/mL, the highest concentration (Cmax) was found to be 1350 ng/mL, the time of peak concentration (Tmax) amounted to 4 h and the half-life was 3.5 h.

For the molecule `[2H]C([2H])([2H])OC1(C)CCN(C[C@H](c2cnc(NC(=O)[C@@H](NC(=O)C3(F)CC3)[C@H]3CC[C@H](C)CC3)s2)N2CC(F)(F)CNC2=O)CC1` [Example 787], the IC50 in data set [1] came out at 9 nM. The same molecule registered a half-maximal inhibitory concentration (IC50) in data set [2] of 8.9 nM. In addition, in data set [3], the AUC(0-t) was found to be 18800 ng·h/mL, the highest concentration (Cmax) came out at 2330 ng/mL, the Tmax is 2 h and the half-life was 2.4 h.

Regarding `C[C@@H]1CN(C[C@H](c2cnc(NC(=O)[C@@H](NC(=O)C3(F)CC3)[C@H]3CC[C@H](C)CC3)s2)N2CC(F)(F)CNC2=O)CCO1` [Example 1012, N-((S)-2-((5-((R)-1-(5,5-difluoro-2-oxotetrahydropyrimidin-1(2H)-yl)-2-((R)-2-methylmorpholino)ethyl)thiazol-2-yl)amino)-1-((1r,4S)-4-methylcyclohexyl)-2-oxoethyl)-1-fluorocyclopropane-1-carboxamide], in data set [1], the 50% inhibitory concentration (IC50) amounted to 6 nM. For the same molecule, half-maximal inhibition in data set [2] (IC50) required 3 nM. Besides, in data set [3], the AUC(0-t) stood at 14200 ng·h/mL, the maximum concentration (Cmax) worked out at 2220 ng/mL, the time to peak (Tmax) was determined as 2 h and the half-life is 2.3 h.

On to `C[C@H]1COCCN1C[C@H](c1cnc(NC(=O)[C@@H](NC(=O)C2(F)CC2)[C@H]2CC[C@H](C)CC2)s1)N1CC(F)(F)CNC1=O` [Example 1014, N-((S)-2-((5-((R)-1-(5,5-difluoro-2-oxotetrahydropyrimidin-1(2H)-yl)-2-((S)-3-methylmorpholino)ethyl)thiazol-2-yl)amino)-1-((1r,4S)-4-methylcyclohexyl)-2-oxoethyl)-1-fluorocyclopropane-1-carboxamide], for which the IC50 in data set [1] came out at 7 nM. This molecule also showed a concentration for half-maximal inhibition (IC50) in data set [2] of 8 nM. In addition, in data set [3], the AUC(0-t) was 12800 ng·h/mL, the Cmax turned out to be 1670 ng/mL, the Tmax was 4 h and the half-life was 2.4 h.
